Like-named read-outs stand apart in the source and are kept apart here.
Assays:
[1] = system: FADD−/− Jurkat cells; assay: Inhibition of TNF-induced programmed necrosis of FADD deficient Jurkat cells (Cell Titer-Glo viability); format: cell-based
Outline: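 FADD-deficient human Jurkat T leukemia cells in log phase were adjusted to 2.5×10^5/mL and plated at 40 μl per well in 384-well plates. Compounds were added, with SM164 (50 nM) where used, for a 1 h pretreatment at 37° C. TNFα (50 ng/mL) was then added, and cells were incubated 14 h at 37° C, 5% CO2. Viability was read as ATP luminescence with Cell Titer-Glo after 30 min at room temperature, with unstimulated DMSO wells set as 100%. EC50 values were calculated in Prism Graphpad.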

[2] = Liver microsomal stability test, human; format: in vitro ADME
Text: (§1) The adopted biological test protocol was: testing the half-life of the compound in human- or mouse-derived liver microsomes.
(§2) Liver microsomes contain many enzymes involved in drug metabolism, especially cytochrome P-450, and therefore it is one of the major tissues involved in drug metabolism in living organisms. There are some correlations between the stability of the compound in liver microsomes and the pharmacogenetic stability thereof in vivo. Therefore, the relative stability of compounds in vivo can be roughly predicted by testing the half-life of different compounds in human- or mouse-derived liver microsomes. The specific methods were as follows:
(§3) Methods: 0.75 μL of 0.5 mM samples (compounds to be tested and control verapamil), 9.38 μL of 20 mg/mL liver microsomes (Human and Mouse) were taken and added to 239.88 μL PBS (on ice), and divided into 30 μL/tube samples respectively. The samples were incubated at 37° C. in a constant temperature water bath for 5 min, and then all samples were taken out. At zero-time, control group was added with 90 μL of ice acetonitrile first, and then added with 15 μL of 3 mM NADPH solution sequentially, and incubated at 37° C. in a constant temperature water bath. The corresponding samples were taken out after 5 min, 10 min, 20 min, 30 min and 60 min, respectively, and quenched by adding 90 μL of ice acetonitrile. All samples were centrifuged at 10000 rpm for 10 min, and the supernatants were taken and placed in a liquid phase vial waiting for LC-MS analysis.

[3] = Liver microsomal stability test, mouse; format: in vitro ADME
Text: as §1, §2, §3

[4] = system: phosphorylation of RIPK1 and phosphorylation of downstream protein MLKL; assay: Programmed necrosis pathway signals by western blot in L929 cells; format: cell-based, mouse
Method: In order to verify whether the compounds of the present invention can inhibit programmed cell necrosis by inhibiting the activity of RIPK1, and to detect the changes in the signal of the programmed necrosis pathway. FADD-deficient Jurkat or L929 cells treated with the compound of the present invention were used, and TNFα was added to induce programmed necrosis. Then the cells were collected and phosphorylation of RIPK1 and oligomerization of MLKL were detected using western blot.
Methods: FADD-deficient Jurkat cells or L929 cells were cultured in vitro. After growing to the logarithmic growth phase, the cells were collected, centrifuged at 1000 rpm for 5 min, the supernatant was discarded, and the cell concentration was adjusted to 1×10^6/mL. In the 12-well cell culture plate, each well was added with 1 ml of cells, and 0.2 μL of DMSO solution with a concentration of 50 mM drug or pure DMSO control, and pretreated for 1 h. 0.5 μL of TNF α (PBS solution) with a concentration of 100 μg/ml was added to each stimulated group. […] The BCA protein quantification kit was used to detect the protein content of each group, and PIPA lysis buffer was used to adjust the protein amount to make the final volume being 100 μL. […] The resulting sample was incubated with ECL luminescent solution and the luminescent signal was detected.

## Cn1ncc(C(=O)NCc2ccc(-n3cnc4c(N)ncnc43)cc2)c1Cc1ccccc1 [QY-10-40]
[1]; FADD-deficient Jurkat cells
  concentration that essentially completely inhibits TNFα-induced programmed necrosis: above 1 nM
[1]; FADD−/− Jurkat cells, stimulated with TNFα + SM164, read-out: EC50 (μM) FADD−/− Jurkat cells (human) TNFα + SM164
  EC50: 0.06 nM
[1]; Homo sapiens, Jurkat, read-out: EC50 (μM) FADD−/− Jurkat cells (human) TNFα
  EC50: 0.001 nM
[1]; human FADD-deficient Jurkat cells, TNFα alone or in combination with SM164
  activity of inhibition of programmed necrosis compared with GSK2982772: stronger activity
[2]; human derived liver microsomes
  stability in liver microsomes (in words): good stability
[2]; human liver microsomes, NADPH, 37° C.
  T1/2 (min) Human: 40.8 min
[3]; mouse derived liver microsomes
  stability in liver microsomes (in words): good stability
[3]; mouse liver microsomes, NADPH, 37° C.
  T1/2 (min) Mouse: 69.3 min
[4]
  inhibitory effect on pathway signals compared with GSK2982772 and Nec-1s: far superior to the other two

Source: patent US20230331707A1, “PROGRAMMED CELL NECROSIS INHIBITOR, PREPARATION METHOD THEREFOR, AND USE THEREOF” (Shanghai Institute of Organic Chemistry, Chinese Academy of …, priority 2020, published 2023)
